These compounds were tested on Plasmodium falciparum (assay: Antiparasitic activity against chloroquine-resistant Plasmodium falciparum FcB1 assessed as inhibition of parasite growth incubated for 24 hrs by liquid scintillation spectrometer analysis). Conditions: FcB1, 24 h.
Type: functional, organism-based
CC[C@@]12CC[C@@]34Nc5ccc([C@@H]6[C@H]7O[C@H]7[C@]7(CC)CC(C(=O)OC)=C8Nc9ccccc9[C@@]89CCN6[C@@H]79)cc5[C@@H]3CCN(C[C@H](O)[C@H]1O)[C@@H]24 showed an IC50 of 2.9 µM.
CC[C@@]12CC[C@@]34Nc5ccc([C@@H]6[C@H]7O[C@H]7[C@]7(CC)CC(C(=O)OC)=C8Nc9ccccc9[C@@]89CCN6[C@@H]79)cc5[C@@H]3CCN(C[C@H]3O[C@H]31)[C@@H]24 was tested, and the IC50 was 54.5 µM.
CC[C@@]12CC[C@@]34Nc5ccc([C@@H]6[C@H]7O[C@H]7[C@]7(CC)CC(C(=O)OC)=C8Nc9ccccc9[C@@]89CCN6[C@@H]79)cc5[C@@H]3CCN(C[C@H](OS(=O)(=O)O)[C@H]1O)[C@@H]24 gave an IC50 of 14.3 µM.
